Test results: the NIST ThermoML archive (doi:10.1021/acs.jced.6b00606)
± gives the expanded uncertainty stated by the source.

What was measured:
[1] = molar heat capacity at constant pressure; xn = mol fraction of the nth substance listed; settings: 100 kPa, Liquid, Extra sensitive DSC
[2] = excess molar enthalpy (molar enthalpy of mixing); xn = mol fraction of the nth substance listed; settings: 308.15 K, 100 kPa, Liquid, Calvet calorimetry

O=C1CCCCC1 [cyclohexanone] + C1CCOCC1
molar heat capacity at constant pressure [J/K/mol], [1]
Settings | 293.15 K | 298.15 K | 303.15 K | 308.15 K
x2 = 0.0995 | 176.32 ± 6.8 | 178.62 ± 6.9 | 180.9 ± 7 | 183.36 ± 7.1
x2 = 0.1452 | 175.99 ± 6.8 | 178.41 ± 6.9 | 181.03 ± 7 | 183.58 ± 7.1
x2 = 0.1965 | 175.76 ± 6.8 | 178.4 ± 6.9 | 181.02 ± 7 | 183.49 ± 7.1
x2 = 0.2456 | 175.65 ± 6.8 | 178.24 ± 6.9 | 180.93 ± 7 | 183.53 ± 7.1
x2 = 0.2863 | 175.47 ± 6.8 | 178.06 ± 6.9 | 180.64 ± 7 | 183.3 ± 7.1
x2 = 0.3321 | 175.13 ± 6.8 | 177.68 ± 6.9 | 180.22 ± 7 | 182.87 ± 7.1
x2 = 0.3845 | 174.53 ± 6.8 | 177.03 ± 6.9 | 179.51 ± 7 | 182.09 ± 7.1
x2 = 0.4215 | 173.95 ± 6.8 | 176.42 ± 6.8 | 178.92 ± 6.9 | 181.49 ± 7
x2 = 0.4723 | 172.86 ± 6.7 | 175.29 ± 6.8 | 177.75 ± 6.9 | 180.31 ± 7
x2 = 0.5241 | 171.58 ± 6.7 | 173.99 ± 6.8 | 176.42 ± 6.8 | 178.98 ± 7
x2 = 0.5796 | 169.75 ± 6.6 | 172.22 ± 6.7 | 174.56 ± 6.8 | 177.13 ± 6.9
x2 = 0.6153 | 168.49 ± 6.5 | 170.9 ± 6.6 | 173.23 ± 6.7 | 175.87 ± 6.8
x2 = 0.6654 | 166.35 ± 6.5 | 168.77 ± 6.5 | 171.21 ± 6.6 | 173.73 ± 6.7
x2 = 0.7132 | 164.19 ± 6.4 | 166.61 ± 6.5 | 168.92 ± 6.6 | 171.57 ± 6.7
x2 = 0.7698 | 161.26 ± 6.3 | 163.68 ± 6.3 | 165.99 ± 6.4 | 168.56 ± 6.5
x2 = 0.8265 | 158.18 ± 6.1 | 160.54 ± 6.2 | 162.79 ± 6.3 | 165.3 ± 6.4
x2 = 0.8732 | 155.48 ± 6 | 157.76 ± 6.1 | 159.9 ± 6.2 | 162.31 ± 6.3
x2 = 0.9245 | 152.46 ± 5.9 | 154.55 ± 6 | 156.51 ± 6.1 | 158.75 ± 6.2

[2]
Settings | excess molar enthalpy [kcal/mol]
x2 = 0.0989 | 0.0098 ± 0.000311
x2 = 0.1475 | 0.014 ± 0.000382
x2 = 0.1926 | 0.017 ± 0.000454
x2 = 0.2415 | 0.0206 ± 0.000526
x2 = 0.2953 | 0.0231 ± 0.000574
x2 = 0.3416 | 0.0253 ± 0.000621
x2 = 0.3952 | 0.0268 ± 0.000645
x2 = 0.4426 | 0.0274 ± 0.000669
x2 = 0.4956 | 0.0276 ± 0.000669
x2 = 0.5425 | 0.0271 ± 0.000645
x2 = 0.5982 | 0.0257 ± 0.000621
x2 = 0.641 | 0.0244 ± 0.000598
x2 = 0.6825 | 0.0227 ± 0.00055
x2 = 0.7333 | 0.02 ± 0.000502
x2 = 0.7865 | 0.0167 ± 0.00043
x2 = 0.8359 | 0.0132 ± 0.000382
x2 = 0.8875 | 0.0093 ± 0.000311
x2 = 0.9299 | 0.00576 ± 0.000239
